Biological target: T1, c-Met kinase (recombinant c-Met) (Homo sapiens, UniProt P08581)
T1 construct: 0.27 nM recombinant c-Met
Assay: In vitro kinase assay I (homogeneous time-resolved fluorescence tyrosine kinase assay)
Format: biochemical
Method in brief: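 Biotinylated peptide (0.5 μM) phosphorylated by 0.2 nM recombinant c-Met with 50 μM MgATP, 60 min at room temperature, pH 7.4, 5% DMSO. EDTA stop; HTRF read with Eu-anti-phosphotyrosine antibody and streptavidin-APC. IC50 from 4-parameter logistic fit.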

T1 sequence (P08581 25-1390): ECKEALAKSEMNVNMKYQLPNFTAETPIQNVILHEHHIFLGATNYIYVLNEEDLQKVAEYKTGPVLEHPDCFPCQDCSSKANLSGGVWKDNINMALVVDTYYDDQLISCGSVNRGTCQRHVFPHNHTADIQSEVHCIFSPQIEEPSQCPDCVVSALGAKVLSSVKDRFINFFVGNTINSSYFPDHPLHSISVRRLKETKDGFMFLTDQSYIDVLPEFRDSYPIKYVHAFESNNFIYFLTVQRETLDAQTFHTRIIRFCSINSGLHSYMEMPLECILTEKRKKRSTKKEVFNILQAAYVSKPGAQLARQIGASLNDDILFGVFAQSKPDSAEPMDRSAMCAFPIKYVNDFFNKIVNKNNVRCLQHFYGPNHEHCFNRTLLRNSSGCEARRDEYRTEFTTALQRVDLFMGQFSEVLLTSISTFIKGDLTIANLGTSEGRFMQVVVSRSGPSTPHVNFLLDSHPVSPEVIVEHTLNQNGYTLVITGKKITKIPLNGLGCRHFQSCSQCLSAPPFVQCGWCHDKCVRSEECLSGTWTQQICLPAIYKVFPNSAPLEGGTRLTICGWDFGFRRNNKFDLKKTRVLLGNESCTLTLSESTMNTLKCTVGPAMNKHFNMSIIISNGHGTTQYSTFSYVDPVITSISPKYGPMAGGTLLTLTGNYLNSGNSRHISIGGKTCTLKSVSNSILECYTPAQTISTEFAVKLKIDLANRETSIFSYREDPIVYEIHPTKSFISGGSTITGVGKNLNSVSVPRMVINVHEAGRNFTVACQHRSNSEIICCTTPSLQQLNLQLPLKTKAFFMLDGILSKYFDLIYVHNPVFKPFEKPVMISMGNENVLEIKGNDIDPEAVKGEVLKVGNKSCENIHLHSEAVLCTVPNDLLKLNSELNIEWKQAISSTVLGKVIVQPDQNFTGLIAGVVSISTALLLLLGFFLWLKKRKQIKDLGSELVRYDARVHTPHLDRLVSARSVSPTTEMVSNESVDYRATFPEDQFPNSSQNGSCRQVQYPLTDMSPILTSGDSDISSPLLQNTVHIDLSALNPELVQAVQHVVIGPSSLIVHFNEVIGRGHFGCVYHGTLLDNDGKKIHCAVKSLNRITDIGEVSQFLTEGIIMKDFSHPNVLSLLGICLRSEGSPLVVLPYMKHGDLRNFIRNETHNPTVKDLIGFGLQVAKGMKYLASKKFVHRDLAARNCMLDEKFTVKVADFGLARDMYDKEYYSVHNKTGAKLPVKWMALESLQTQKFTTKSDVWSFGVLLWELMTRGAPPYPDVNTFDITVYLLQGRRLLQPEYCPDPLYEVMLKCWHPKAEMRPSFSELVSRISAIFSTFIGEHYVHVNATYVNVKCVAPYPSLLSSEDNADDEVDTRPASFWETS

Row | Structure (SMILES) | IC50 [nM]
1 | Cn1cc(-n2ccc(=O)c(Cc3cccc(-c4ncc(-c5ccc(N)nc5)cn4)c3)n2)cn1 [Example 419, 3-{3-[5-(6-aminopyridin-3-yl)pyrimidin-2-yl]benzyl}-1-(1-methyl-1H-pyrazol-4-yl)pyridazin-4(1H)-one] | < 100
2 | Cn1cc(-n2ccc(=O)c(Cc3cccc(-c4ncc(-c5cc[nH]n5)cn4)c3)n2)cn1 [Example 420, 1-(1-methyl-1H-pyrazol-4-yl)-3-{3-[5-(1H-pyrazol-3-yl)pyrimidin-2-yl]benzyl}pyridazin-4(1H)-one] | < 100
3 | Cn1cc(-n2ccc(=O)c(Cc3cccc(-c4ncc(-c5ccn(C)n5)cn4)c3)n2)cn1 [Example 421, 1-(1-methyl-1H-pyrazol-4-yl)-3-{3-[5-(1-melhyl-1H-pyrazol-3-yl)pyrimidin-2-yl]benzyl}pyridazin-4(1H)-one] | < 100
4 | Cn1cc(-n2ccc(=O)c(Cc3cccc(-c4ncc(-c5cscn5)cn4)c3)n2)cn1 [Example 422, 1-(1-methyl-1H-pyrazol-4-yl)-3-{3-[5-(1,3-thiazol-4-yl)pyrimidin-2-yl]benzyl}pyridazin-4(1H)-one] | < 100
5 | Cn1cc(-n2ccc(=O)c(Cc3cccc(-c4ncc(-c5cnoc5)cn4)c3)n2)cn1 [Example 423, 3-[3-(5-isoxazol-4-ylpyrimidin-2-yl)benzyl]-1-(1-methyl-1H-pyrazol-4-yl)pyridazin-4(1H)-one] | < 100
6 | Cc1noc(C)c1-c1cnc(-c2cccc(Cc3nn(-c4cnn(C)c4)ccc3=O)c2)nc1 [Example 424, 3-{3-[5-(3,5-dimethylisoxa-zol-4-yl)pyrimidin-2-yl]benzyl}-1-(1-methyl-1H-pyrazol-4-yl)pyridazin-4(1H)-one] | 100 to 1000
7 | Cn1cc(-n2ccc(=O)c(Cc3cccc(-c4ncc(-c5ccnnc5)cn4)c3)n2)cn1 [Example 425, 1-(1-methyl-1H-pyrazol-4-yl)-3-[3-(5-pyridazin-4-ylpyrimidin-2-yl)benzyl]pyridazin-4(1H)-one] | < 100
8 | Cn1cc(-n2ccc(=O)c(Cc3cccc(-c4ncc(CN5CCOCC5)cn4)c3)n2)cn1 [Example 426, 1-(1-Methyl-1H-pyrazol-4-yl)-3-{3-[5-(morpholin-4-ylmethyl)pyrimidin-2-yl]benzyl}pyridazin-4(1H)-one] | < 100
9 | CNCc1cnc(-c2cccc(Cc3nn(-c4cnn(C)c4)ccc3=O)c2)nc1 [Example 427, 3-(3-{5-[(methylamino)methyl]pyrimidin-2-yl}benzyl)-1-(1-methyl-1H-pyrazol-4-yl)pyridazin-4(1H)-one] | 100 to 1000
10 | Cn1cc(-n2ccc(=O)c(Cc3cccc(-c4ncc(CN5CCSCC5)cn4)c3)n2)cn1 [Example 428, 1-(1-methyl-1H-pyrazol-4-yl)-3-{3-[5-(thiomorpholin-4-ylmethyl)pyrimidin-2-yl]benzyl}pyridazin-4(1H)-one] | < 100
11 | Cn1cc(-n2ccc(=O)c(Cc3cccc(-c4ncc(CN5CCCC5)cn4)c3)n2)cn1 [Example 429, 1-(1-methyl-1H-pyrazol-4-yl)-3-{3-[5-(pyrrolidin-1-ylmethyl)pyrimidin-2-yl]benzyl}pyridazin-4(1H)-one] | < 100
12 | CN(C)Cc1cnc(-c2cccc(Cc3nn(-c4cnn(C)c4)ccc3=O)c2)nc1 [Example 430, 3-(3-{5-[(dimethylamino)methyl]pyrimidin-2-yl}benzyl)-1-(1-methyl-1H-pyrazol-4-yl)pyridazin-4(1H)-one] | < 100
13 | Cn1cc(-n2ccc(=O)c(Cc3cccc(-c4ncc(CNC5CCCCC5)cn4)c3)n2)cn1 [Example 432, 3-(3-{5-[(cyclohexyl-amino)methyl]pyrimidin-2-yl}benzyl)-1-(1-methyl-1H-pyrazol-4-yl)pyridazin-4(1H)-one] | 100 to 1000
14 | Cn1cc(-n2ccc(=O)c(Cc3cccc(-c4ncc(CN5CCNCC5)cn4)c3)n2)cn1 [Example 433] | < 100
15 | Cn1cc(-n2ccc(=O)c(Cc3cccc(-c4ncc(-c5cnn(C6COC6)c5)cn4)c3)n2)cn1 [Example 435, 1-(1-Methyl-1H-pyrazol-4-yl)-3-{3-[5-(1-oxetan-3-yl-1H-pyrazol-4-yl)pyrimidin-2-yl]benzyl}pyridazin-4(1H)-one] | < 100
16 | CC(C)c1cnc(-c2cccc(Cc3nn(-c4cnn(C)c4)ccc3=O)c2)nc1 [Example 436, 1-(1-Methyl-1H-pyrazol-4-yl)-3-{3-[5-(propan-2-yl)pyrimidin-2-yl]benzyl}pyridazin-4(1H)-one] | < 100
17 | Cn1cc(-n2ccc(=O)c(Cc3cccc(-c4ncc(CCC(C)(C)O)cn4)c3)n2)cn1 [Example 437, 3-{3-[5-(3-hydroxy-3-methylbutyl)pyrimidin-2-yl]benzyl}-1-(1-methyl-1H-pyrazol-4-yl)pyridazin-4(1H)-one] | < 100
18 | CN(C)CCCc1cnc(-c2cccc(Cc3nn(-c4cnn(C)c4)ccc3=O)c2)nc1 [Example 438, 3-(3-{5-[3-(dimethylamino)propyl]pyrimidin-2-yl}benzyl)-1-(1-methyl-1H-pyrazol-4-yl)pyridazin-4(1H)-one] | < 100
19 | COCCCc1cnc(-c2cccc(Cc3nn(-c4cnn(C)c4)ccc3=O)c2)nc1 [Example 439, 3-{3-[5-(3-methoxypropyl)pyrimidin-2-yl]benzyl}-1-(1-methyl-1H-pyrazol-4-yl)pyridazin-4(1H)-one] | < 100
20 | Cn1cc(-n2ccc(=O)c(Cc3cccc(-c4ncc(N5CCCCC5)cn4)c3)n2)cn1 [Example 441, 1-(1-methyl-1H-pyrazol-4-yl)-3-[3-(5-piperidin-1-ylpyrimidin-2-yl)benzyl]pyridazin-4(1H)-one] | < 100
21 | Cn1cc(-n2ccc(=O)c(Cc3cccc(-c4ncc(N5CCC(O)CC5)cn4)c3)n2)cn1 [Example 442, 3-{3-[5-(4-hydroxypiperidin-1-yl)pyrimidin-2-yl]benzyl}-1-(1-methyl-1H-pyrazol-4-yl)pyridazin-4(1H)-one] | < 100
22 | CN(C)C1CCN(c2cnc(-c3cccc(Cc4nn(-c5cnn(C)c5)ccc4=O)c3)nc2)CC1 [Example 444, 3-(3-{5-[4-(dimethylamino)piperidin-1-yl]pyrimidin-2-yl}benzyl)-1-(1-methyl-1H-pyrazol-4-yl)pyridazin-4(1H)-one] | < 100
23 | Cn1cc(-n2ccc(=O)c(Cc3cccc(-c4ncc(N5CCC(C(N)=O)CC5)cn4)c3)n2)cn1 [Example 445, 1-[2-(3-{[1-(1-methyl-1H-pyrazol-4-yl)-4-oxo-1,4-dihydropyridazin-3-yl]methyl}phenyl)pyrimidin-5-yl]piperidine-4-carboxamide] | < 100
24 | Cn1cc(-n2ccc(=O)c(Cc3cccc(-c4ncc(N5CCC(F)(F)C5)cn4)c3)n2)cn1 [Example 447, 3-{3-[5-(3,3-difluoropyrrolidin-1-yl)pyrimidin-2-yl]benzyl}-1-(1-methyl-1H-pyrazol-4-yl)pyridazin-4(1H)-one] | < 100
25 | Cn1cc(-n2ccc(=O)c(Cc3cccc(-c4ncc(N5CCS(=O)(=O)CC5)cn4)c3)n2)cn1 [Example 448, 3-{3-[5-(1,1-dioxidothio-morpholin-4-yl]pyrimidin-2-yl]benzyl}-1-(1-methyl-1H-pyrazol-4-yl)pyridazin-4(1H)-one] | < 100
26 | CCCNc1cnc(-c2cccc(Cc3nn(-c4cnn(C)c4)ccc3=O)c2)nc1 [Example 451, 1-(1-Methyl-1H-pyrazol-4-yl)-3-{3-[5-(propylamino)pyrimidin-2-yl]benzyl}pyridazin-4(1H)-one] | < 100
27 | CCNc1cnc(-c2cccc(Cc3nn(-c4cnn(C)c4)ccc3=O)c2)nc1 [Example 452] | < 100

Reference: US20120264735A1 (priority 2009, published 2012)
